Experimental data published in US9056176B2, “1-phenyl-2-pyridinyl alkyl alcohol compounds as phosphodiesterase inhibitors” (CHIESI FARMACEUTICI S.P.A., priority 2009, dated 2015).
pIC50: −log10 of the molar value.

Legend:
[1] = system: OA-induced contraction in guinea-pig trachea; assay: OA-induced contraction of tracheal preparations from OA-sensitised guinea pigs (organ bath); conditions: 30-minute pre-treatment
Description: Zig-zag tracheal segments are obtained from male Ovoalbumin (OA)-sensitised guinea pigs and two preparations are obtained from a trachea. Each preparation is placed in 20-ml organ bath filled with oxygenated (O2 95% and CO2 5%) normal Krebs-Henseleit solution and maintained at 37° C. Tracheal preparations are connected to isometric force transducers under a resting tone of 1 g. After an equilibration period of 60 minutes, tracheal preparations are pretreated for 30 minutes with C1 (10^-7 M), Carmoterol (3*10^-10 M), the association C1 and Carmoterol or vehicle, respectively, followed by cumulative administration of OA (10^−10-10^−5 g/ml). At the end of the OA administration a maximal concentration of carbachol (10^−5 M) is added to obtain the maximal contraction of each preparation. The effects are expressed as percent values of the carbachol-induced maximal response (100%).

[2] = system: LPS-induced TNF-α release in human PBMCs (PDE4 inhibitory activity); assay: LPS-induced TNF-α release in peripheral blood mononuclear cells (PBMCs) assay; assay type: cell-based; conditions: PBMC, LPS 3 ng/ml, 18 hours, TNF-α by ELISA, mean ± 95% confidence limits, read-out: molar concentration producing 50% inhibition of LPS-induced TNF-α release (IC50)
Description: The assay, which is based on the known inhibitory activity exerted by PDE4 inhibitors on the lipopolyshaccarides (LPS)-induced tumour necrosis factor-alpha (TNF-α release in peripheral blood mononuclear cells (PBMCs), is performed according to a method previously described (Hatzelmann A et al., J. Pharmacol. Exp. Ther., 2001; 297:267-279; and Draheim R et al., J. Pharmacol. Exp. Ther., 2004; 308:555-563, both of which are incorporated herein by reference in their entireties.
Cryopreserved human PBMCs, (100 μl/well) are incubated in 96-well plates (10^5 cells/well), for 30 minutes, in the presence or absence (50 microl) of the test compounds whose concentrations range from 10^−12 M to 10^−6 M. Subsequently, LPS (3 ng/ml) is added.
After 18 hours incubation at 37° C. in a humidified incubator under an atmosphere of 95% air and 5% CO2, culture medium is collected and TNF-α is measured by ELISA.
The effects of the tested compounds are calculated as percentage of inhibition of TNF-α release, assuming LPS-induced TNF-α production in the absence of inhibitor compound as 100% and basal TNF-α production of PBMCs in the absence of LPS as 0%.

Structure (SMILES): COc1ccc(C[C@@H](C)NC[C@H](O)c2ccc(O)c3[nH]c(=O)ccc23)cc1 [Carmoterol, carmoterol, reference compound]
- inhibition of the OA-induced contraction ([1]; Carmoterol 3*10^-10 M): 18%

Structure (SMILES): CS(=O)(=O)Nc1ccc(C(=O)OC(Cc2c(Cl)cncc2Cl)c2ccc(OC(F)F)c(OCC3CC3)c2)cc1OCC1CC1 (single isomer, unassigned; (-)) [Compound C1, (−)-3-Cyclopropylmethoxy-4-methanesulfonylamino-benzoic acid 1-(3-cyclopropylmethoxy-4-difluoromethoxy-phenyl)-2-(3,5-dichloro-pyridin-4-yl)-ethyl ester]
- inhibition at 0.1 µM ([1]; Cavia porcellus, C1 10^−7 M): 23%
- pIC50 [2]: 8.36 to 10.22
